The values that follow come from patent publication US9321756B2, “Azole compounds as PIM inhibitors” (priority 2011, dated 2016).

The subject of test [1] is Pim-1 stably transfected U2OS human osteogenic sarcoma line. The test is described as follows: Pim cell assay U2OS (phospho-BAD normalized against total BAD), Pim-1 transfected. Conditions: Homo sapiens, U2OS. The class given is cell-based.
The test system of test [2] is Pim-2 stably transfected U2OS human osteogenic sarcoma line. In words: Pim cell assay U2OS (phospho-BAD normalized against total BAD), Pim-2 transfected. The class given is cell-based. Particulars: Homo sapiens, read-out: U2OS Pim2_Cell_IC50.
The target of test [3] is full length recombinant Pim-1 (Homo sapiens (Human), UniProt P11309). In words: Pim enzyme assay (HTRF, phosphorylation of biotinylated-BAD (S112) peptide), Pim-1. The test is classed as biochemical. On the technique in general: Time-resolved FRET reads energy transfer from a long-lived donor to a nearby acceptor.
For test [4], the target named is full length recombinant Pim-2 (Homo sapiens (Human), UniProt Q9P1W9). In words: Pim enzyme assay (HTRF, phosphorylation of biotinylated-BAD (S112) peptide), Pim-2. The class given is biochemical. Conditions: read-out: Pim2_IC50.
The target in test [5] is full length recombinant Pim-3 (Homo sapiens (Human), UniProt Q86V86). The test is described as follows: Pim enzyme assay (HTRF, phosphorylation of biotinylated-BAD (S112) peptide), Pim-3. The test is classed as biochemical. Conditions: read-out: Pim3 IC50. Summed up: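 IC50 values were fitted with a 4-parameter logistic model to percent-of-control HTRF signal (Eu anti-phospho-BAD S112 antibody/streptavidin-APC). Reactions used full-length Pim-3 and biotin-BAD (S112) peptide, ran 1 h 30 min at RT (22 °C) in Hepes pH 7.0 buffer with BSA and DTT, and were stopped by 3 mM EDTA.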

Where [6] appears, read: read-out: U2OS Pim1_Cell_IC50, U2OS cells, Pim-1 transfected.
Where [7] appears, read: Pim-1 enzyme assay, read-out: Pim_1_IC50.

SMILES strings stand for the structures. Read-outs that look alike come from different tables or passages of the source.

full length recombinant Pim-1, sequence (P11309 whole entry): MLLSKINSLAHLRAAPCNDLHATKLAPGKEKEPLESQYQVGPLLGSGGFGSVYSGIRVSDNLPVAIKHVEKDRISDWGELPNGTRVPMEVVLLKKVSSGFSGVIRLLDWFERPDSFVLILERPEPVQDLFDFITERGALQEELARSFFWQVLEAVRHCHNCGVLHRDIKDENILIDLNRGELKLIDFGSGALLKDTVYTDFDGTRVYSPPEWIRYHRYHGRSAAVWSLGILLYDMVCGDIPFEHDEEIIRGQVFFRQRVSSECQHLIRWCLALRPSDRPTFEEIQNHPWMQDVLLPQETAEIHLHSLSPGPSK
full length recombinant Pim-2, sequence (Q9P1W9 whole entry): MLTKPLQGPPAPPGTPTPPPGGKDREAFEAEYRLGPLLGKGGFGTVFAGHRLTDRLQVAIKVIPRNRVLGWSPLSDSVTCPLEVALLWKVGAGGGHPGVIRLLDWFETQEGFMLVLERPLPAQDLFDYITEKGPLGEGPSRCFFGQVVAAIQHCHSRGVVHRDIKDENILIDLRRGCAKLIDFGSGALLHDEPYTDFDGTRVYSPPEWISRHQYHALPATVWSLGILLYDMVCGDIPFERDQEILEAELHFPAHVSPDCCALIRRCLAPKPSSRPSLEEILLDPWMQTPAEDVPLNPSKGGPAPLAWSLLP

For the molecule `CSc1nnc(-c2ccc3[nH]cc(-c4cccc(N5CCOCC5)n4)c3c2)s1` [Example 243, 5-(5-(methylsulfanyl)-1,3,4-thiadiazol-2-yl)-3-(6-(4-morpholinyl)-2-pyridinyl)-1H-indole], the IC50 in test [1] (setting [6]) is 6330 nM; in test [2] (U2OS cells, Pim-2 transfected), over 31600 nM; in test [3] (setting [7]), 223 nM; in test [4] (Pim-2 enzyme assay) it was 2820 nM; in test [5] (Pim-3 enzyme assay), 85.2 nM.
As for `COc1cc(-c2c[nH]c3ccc(-c4nnc(N)s4)cc23)nc(OC)n1` [Example 202, 5-(3-(2,6-dimethoxy-4-pyrimidinyl)-1H-indol-5-yl)-1,3,4-thiadiazol-2-amine], the IC50 in test [1] (read-out: U2OS Pim1_Cell_IC50) was 238 nM; in test [2] (U2OS), over 31600 nM; in test [3], 73.2 nM; in test [4] (Pim-2 enzyme assay) it was 87.5 nM; in test [5] (Pim-3 enzyme assay) it was 11.1 nM.
On to `Nc1nnc(-c2ccc3[nH]cc(-c4cncc(NC5CCCC5)n4)c3c2)o1` [Example 4, 5-(3-(6-(cyclopentylamino)pyrazin-2-yl)-1H-indol-5-yl)-1,3,4-oxadiazol-2-amine], for which the IC50 in test [1] (read-out: U2OS Pim1_Cell_IC50) is 27 nM; in test [2] (U2OS cells, Pim-2 transfected) it was 342 nM; in test [3] (setting [7]), 1.01 nM; in test [4] (Pim-2 enzyme assay), 2 nM; in test [5] (Pim-3 enzyme assay) it was 0.586 nM.
The like results for `CCCOc1cccc(-c2c[nH]c3ccc(-c4nnc(N)s4)cc23)n1` [Example 165, 5-(3-(6-propoxy-2-pyridinyl)-1H-indol-5-yl)-1,3,4-thiadiazol-2-amine] were, in that order, 231 nM, 4230 nM, 15.2 nM, 35.3 nM and 5.73 nM.
As to `Nc1nnc(-c2ccc3[nH]cc(-c4cncc(-c5ccccc5F)n4)c3c2)o1` [Example 116, 5-(3-(6-(2-fluorophenyl)-2-pyrazinyl)-1H-indol-5-yl)-1,3,4-oxadiazol-2-amine], the IC50 is 224 nM in test [1] (setting [6]); over 31600 nM in test [2] (U2OS cells, Pim-2 transfected); 15.2 nM in test [3] (setting [7]); 19.6 nM in test [4] (Pim-2 enzyme assay); 7.81 nM in test [5] (Pim-3 enzyme assay).
`Nc1nnc(-c2ccc3[nH]cc(-c4nccc(-c5ccccc5)n4)c3c2)o1` [Example 122, 5-(3-(4-phenyl-2-pyrimidinyl)-1H-indol-5-yl)-1,3,4-oxadiazol-2-amine]: the IC50 in test [1] (setting [6]) was 132 nM; in test [2] (U2OS cells, Pim-2 transfected), 831 nM; in test [3] (setting [7]), 6.85 nM; in test [4] (Pim-2 enzyme assay), 3.87 nM; in test [5] (Pim-3 enzyme assay) it was 2.4 nM.
As to `Cn1cc(-c2cncc(-c3c[nH]c4ccc(-c5nnc(N)o5)cc34)n2)cn1` [Example 121, 5-(3-(6-(1-methyl-1H-pyrazol-4-yl)-2-pyrazinyl)-1H-indol-5-yl)-1,3,4-oxadiazol-2-amine], the IC50 in test [1] (read-out: U2OS Pim1_Cell_IC50) is 3140 nM; in test [2] (U2OS cells, Pim-2 transfected) it was over 31600 nM; in test [3] (setting [7]) it was 19 nM; in test [4] (Pim-2 enzyme assay), 34.6 nM; in test [5] (Pim-3 enzyme assay), 5.54 nM.
For `Nc1nnc(-c2ccc3[nH]cc(-c4cccc(F)c4F)c3c2)o1` [Example 78, 5-(3-(2,3-difluorophenyl)-1H-indol-5-yl)-1,3,4-oxadiazol-2-amine] the same measures were 1110 nM, 18700 nM, 103 nM, 164 nM and 54.3 nM.
With `CC(C)Nc1cccc(-c2c[nH]c3ccc(-c4nnc(N)s4)cc23)n1` [Example 203, 6-(5-(5-amino-1,3,4-thiadiazol-2-yl)-1H-indol-3-yl)-N-(1-methylethyl)-2-pyridinamine], the IC50 came to 384 nM in test [1] (setting [6]); 2190 nM in test [2] (U2OS cells, Pim-2 transfected); 20.9 nM in test [3] (setting [7]); 37.2 nM in test [4] (Pim-2 enzyme assay); 5.42 nM in test [5] (Pim-3 enzyme assay).
Consider `Nc1nnc(-c2ccc3[nH]cc(-c4cncc(NC5CCCC5)n4)c3c2)s1` [Example 17, 5-(3-(6-(cyclopentylamino)pyrazin-2-yl)-1H-indol-5-yl)-1,3,4-thiadiazol-2-amine 2,2,2-trifluoroacetate], for which the IC50 in test [1] (read-out: U2OS Pim1_Cell_IC50) was determined as 56.6 nM; in test [2] (U2OS) it was 1220 nM; in test [3] (read-out: Pim_1_IC50), 1.5 nM; in test [4], 5.92 nM; in test [5] it was 0.763 nM.
In the case of `Nc1nnc(-c2ccc3[nH]cc(-c4cccc(-n5cccn5)n4)c3c2)o1` [Example 77, 5-(3-(6-(1H-pyrazol-1-yl)-2-pyridinyl)-1H-indol-5-yl)-1,3,4-oxadiazol-2-amine], the IC50 in test [1] (setting [6]) amounted to 112 nM; in test [2] (U2OS cells, Pim-2 transfected) it was 1890 nM; in test [3] (setting [7]) it was 11.9 nM; in test [4] (Pim-2 enzyme assay), 13.7 nM; in test [5] (Pim-3 enzyme assay) it was 4.13 nM.
As to `Nc1nnc(-c2ccc3[nH]cc(-c4cncc(N5CCCCC5)n4)c3c2)s1` [Example 198, 5-(3-(6-(1-piperidinyl)-2-pyrazinyl)-1H-indol-5-yl)-1,3,4-thiadiazol-2-amine], the IC50 in test [1] (setting [6]) stood at 36.9 nM; in test [2] (U2OS cells, Pim-2 transfected) it was 1720 nM; in test [3] (setting [7]), 2.51 nM; in test [4] (Pim-2 enzyme assay), 10.9 nM; in test [5] (Pim-3 enzyme assay), 2.79 nM.
Consider `CC(C)Cn1cc(-c2c[nH]c3ccc(-c4nnc(N)o4)cc23)cn1` [Example 80, 5-(3-(1-(2-methylpropyl)-1H-pyrazol-4-yl)-1H-indol-5-yl)-1,3,4-oxadiazol-2-amine], for which the IC50 came to 142 nM in test [1] (read-out: U2OS Pim1_Cell_IC50); 3660 nM in test [2] (U2OS cells, Pim-2 transfected); 47 nM in test [3] (setting [7]); 78 nM in test [4] (Pim-2 enzyme assay); 67.1 nM in test [5] (Pim-3 enzyme assay).
The like results for `Nc1nnc(-c2ccc3[nH]cc(-c4nccc(Nc5ccccc5)n4)c3c2)o1` [Example 108, 2-(5-(5-amino-1,3,4-oxadiazol-2-yl)-1H-indol-3-yl)-N-phenyl-4-pyrimidinamine] were, in that order, 711 nM, 1410 nM, 9.41 nM, 3.1 nM and 2.07 nM.
As to `CC(Oc1cncc(-c2c[nH]c3ccc(-c4nnc(N)s4)cc23)n1)C(F)(F)F` (centres unmarked) [Example 211, 5-(3-(6-(2,2,2-trifluoro-1-methylethoxy)-2-pyrazinyl)-1H-indol-5-yl)-1,3,4-thiadiazol-2-amine], the IC50 in test [1] (read-out: U2OS Pim1_Cell_IC50) turned out to be 192 nM; in test [2] (U2OS cells, Pim-2 transfected) it was 2800 nM; in test [3] (setting [7]), 24.5 nM; in test [4] (Pim-2 enzyme assay), 53.7 nM; in test [5] (Pim-3 enzyme assay), 13.2 nM.
As for `Nc1nnc(-c2ccc3[nH]cc(-c4cccc(-c5ccccc5)n4)c3c2)s1` [Example 130, 5-(3-(6-phenyl-2-pyridinyl)-1H-indol-5-yl)-1,3,4-thiadiazol-2-amine], the IC50 in test [1] (read-out: U2OS Pim1_Cell_IC50) is 7880 nM; in test [2] (U2OS cells, Pim-2 transfected) it was over 31600 nM; in test [3] (setting [7]), 39.6 nM; in test [4] (Pim-2 enzyme assay) it was 39 nM; in test [5] (Pim-3 enzyme assay), 20.5 nM.
`Nc1nnc(-c2ccc3[nH]cc(-c4cncc(NCC5CC5)n4)c3c2)s1` [Example 207, 6-(5-(5-amino-1,3,4-thiadiazol-2-yl)-1H-indol-3-yl)-N-(cyclopropylmethyl)-2-pyrazinamine]: the IC50 worked out at 37.4 nM in test [1] (read-out: U2OS Pim1_Cell_IC50); 1090 nM in test [2] (U2OS cells, Pim-2 transfected); 1.77 nM in test [3] (setting [7]); 7.71 nM in test [4] (Pim-2 enzyme assay); 1.68 nM in test [5] (Pim-3 enzyme assay).
With `c1ccc(-c2nnc(-c3ccc4[nH]cc(-c5cncc(C6CC6)n5)c4c3)o2)cc1` [Example 254, 3-(6-cyclopropyl-2-pyrazinyl)-5-(5-phenyl-1,3,4-oxadiazol-2-yl)-1H-indole], the IC50 in test [1] (read-out: U2OS Pim1_Cell_IC50) was over 15800 nM; in test [2] (U2OS cells, Pim-2 transfected), 808 nM; in test [3] (setting [7]), 175 nM; in test [4] (Pim-2 enzyme assay), over 1000 nM; in test [5] (Pim-3 enzyme assay) it was 138 nM.
`COc1cc(-c2c[nH]c3ccc(-c4nnc(N)s4)cc23)nc(OC(C)C)n1` [Example 200, 5-(3-(6-methoxy-2-(1-methylethoxy)-4-pyrimidinyl)-1H-indol-5-yl)-1,3,4-thiadiazol-2-amine]: the IC50 in test [1] (read-out: U2OS Pim1_Cell_IC50) is 112 nM; in test [2] (U2OS cells, Pim-2 transfected), 3800 nM; in test [3] (setting [7]) it was 15.4 nM; in test [4] (Pim-2 enzyme assay), 30.1 nM; in test [5] (Pim-3 enzyme assay), 2.17 nM.
Regarding `CC1(C)CNc2ncc(-c3c[nH]c4ccc(-c5nnc(N)s5)cc34)nc21` [Example 201, 5-(3-(7,7-dimethyl-6,7-dihydro-5H-pyrrolo[2,3-b]pyrazin-2-yl)-1H-indol-5-yl)-1,3,4-thiadiazol-2-amine], the IC50 in test [1] (read-out: U2OS Pim1_Cell_IC50) is 387 nM; in test [2] (U2OS cells, Pim-2 transfected), 3830 nM; in test [3] (setting [7]), 17.9 nM; in test [4] (Pim-2 enzyme assay) it was 32.4 nM; in test [5] (Pim-3 enzyme assay), 4.93 nM.
For `CC(C)Nc1ccnc(-c2c[nH]c3ccc(-c4nnc(N)o4)cc23)n1` [Example 103, 2-(5-(5-amino-1,3,4-oxadiazol-2-yl)-1H-indol-3-yl)-N-(1-methylethyl)-4-pyrimidinamine] the same measures were 739 nM, 1220 nM, 6.9 nM, 2.24 nM and 1.67 nM.
The like results for `Cc1cn(-c2nc(-c3c[nH]c4ccc(-c5nnc(N)s5)cc34)cs2)cn1` [Example 170, 5-(3-(2-(4-methyl-1H-imidazol-1-yl)-1,3-thiazol-4-yl)-1H-indol-5-yl)-1,3,4-thiadiazol-2-amine] were, in that order, 876 nM, over 31600 nM, 34.8 nM, 100 nM and 9.47 nM.
